Data from patent publication US5556744A, “Methods and compositions for diagnosing and treating certain HIV infected patients” (The Trustees of the University of Pennsylvania, priority 1994, dated 1996).

What was measured:
[1] = test system: maternal HIV+ sera (antibodies); assay: RIA / ELISA binding of maternal HIV+ sera to gp120 and gp41 peptides (Example 3); set-up: species or system human
Summary of the method: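 Maternal sera, diluted 1:50 and 1:500, were bound overnight at 4°C to peptides immobilized at 10 μg/ml (pH 9.6 carbonate) and blocked with 1% BSA. Read-out was ¹²⁵I-labelled anti-human IgG counts or HRP-TMB OD450. Signal with peptide minus without was expressed relative to seronegative serum.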

[2] = test system: maternal sera (antibodies); assay: ELISA peptide-binding of maternal sera (Example 6); set-up: species or system human; conditions: for Number of Non-Transmitters which bound to peptide / Percent of Non-Transmitters which bound to peptide: N = 12; for Number of Transmitters which bound to peptide / Percent of Transmitters which bound to peptide: N = 4
Description: A total of 86 maternal sera samples obtained from patients of the Hospital of the University of Pennsylvania during the third trimester of pregnancy were used in this study 58 (67%) were non-transmitters and 28 (33%) were transmitters. This is approximately consistent with the national average (i.e. a rate of transmission between 25-30%). Transmission status was based upon serological or molecular diagnosis of children (at an age of greater than 15 months) born to these mothers. Because of the constraints on the volume of serum available for many of these samples, not all sera were analyzed with all the peptides. However, each sera sample was run with at least 40 peptides.
These peptides are of an average length of 16 amino acids and covered the entire external as well as the transmembrane glycoprotein of HIV-1. Peptide binding was analyzed by ELISA essentially as described in Example 3.
The results of one study, using some of the peptides identified above among others, is provided in Table 12, which illustrates the number and percent of non-transmitters which bound to the tested peptide. The percentage designation refers to the percentage of sera samples which bound to a particular peptide. A value of greater than 0% means that at least one of the samples bound to the particular peptides.

[3] = Serum No. 1, Non-Transmission Group
[4] = Serum No. 2, Non-Transmission Group
[5] = Serum No. 3, Non-Transmission Group
[6] = Serum No. 4, Transmission Group
[7] = Serum No. 5, Transmission Group
[8] = Serum No. 6, Non-Transmission Group
[9] = Serum No. 7, Non-Transmission Group
[10] = Serum No. 8, Non-Transmission Group
[11] = Serum No. 9, Non-Transmission Group
[12] = Serum No. 10, Transmission Group
[13] = Serum No. 11, Non-Transmission Group
[14] = Serum No. 12, Non-Transmission Group
[15] = Serum No. 13, Transmission Group
[16] = Serum No. 14, Transmission Group
[17] = Serum No. 15, Transmission Group
[18] = Serum No. 16, Non-Transmission Group
[19] = Serum No. 17, Non-Transmission Group
[20] = Serum No. 18, Non-Transmission Group
[21] = Serum No. 19, Transmission Group
[22] = Serum No. 20, Non-Transmission Group

Row | Sequence | Binding of maternal HIV+ serum to peptide (sera/NHS ratio) [1, 3] | Binding of maternal HIV+ serum to peptide (sera/NHS ratio) [1, 4] | Binding of maternal HIV+ serum to peptide (sera/NHS ratio) [1, 5] | Binding of maternal HIV+ serum to peptide (sera/NHS ratio) [1, 6] | Binding of maternal HIV+ serum to peptide (sera/NHS ratio) [1, 7] | Binding of maternal HIV+ serum to peptide (sera/NHS ratio) [1, 8] | Binding of maternal HIV+ serum to peptide (sera/NHS ratio) [1, 9] | Binding of maternal HIV+ serum to peptide (sera/NHS ratio) [1, 10] | Binding of maternal HIV+ serum to peptide (sera/NHS ratio) [1, 11] | Binding of maternal HIV+ serum to peptide (sera/NHS ratio) [1, 12] | Binding of maternal HIV+ serum to peptide (sera/NHS ratio) [1, 13] | Binding of maternal HIV+ serum to peptide (sera/NHS ratio) [1, 14] | Binding of maternal HIV+ serum to peptide (sera/NHS ratio) [1, 15] | Binding of maternal HIV+ serum to peptide (sera/NHS ratio) [1, 16] | Binding of maternal HIV+ serum to peptide (sera/NHS ratio) [1, 17] | Binding of maternal HIV+ serum to peptide (sera/NHS ratio) [1, 18] | Binding of maternal HIV+ serum to peptide (sera/NHS ratio) [1, 19] | Binding of maternal HIV+ serum to peptide (sera/NHS ratio) [1, 20] | Binding of maternal HIV+ serum to peptide (sera/NHS ratio) [1, 21] | Binding of maternal HIV+ serum to peptide (sera/NHS ratio) [1, 22] | further results
1 | RKSIGIQRGPGR [Peptide 1029-33] | + (which value is between 2 to 3) | ++ (which value is greater than 3) | + (which value is between 2 to 3) | - (specific OD450 or cpm of sera sample binding to peptide divided by the specific OD450 or cpm of NHS sample binding to peptide, which value is less than 2) | + (which value is between 2 to 3) | - (specific OD450 or cpm of sera sample binding to peptide divided by the specific OD450 or cpm of NHS sample binding to peptide, which value is less than 2) | - (specific OD450 or cpm of sera sample binding to peptide divided by the specific OD450 or cpm of NHS sample binding to peptide, which value is less than 2) | - (specific OD450 or cpm of sera sample binding to peptide divided by the specific OD450 or cpm of NHS sample binding to peptide, which value is less than 2) | - (specific OD450 or cpm of sera sample binding to peptide divided by the specific OD450 or cpm of NHS sample binding to peptide, which value is less than 2) | - (specific OD450 or cpm of sera sample binding to peptide divided by the specific OD450 or cpm of NHS sample binding to peptide, which value is less than 2) | + (which value is between 2 to 3) | + (which value is between 2 to 3) | + (which value is between 2 to 3) | - (specific OD450 or cpm of sera sample binding to peptide divided by the specific OD450 or cpm of NHS sample binding to peptide, which value is less than 2) | + (which value is between 2 to 3) | - (specific OD450 or cpm of sera sample binding to peptide divided by the specific OD450 or cpm of NHS sample binding to peptide, which value is less than 2) | + (which value is between 2 to 3) | - (specific OD450 or cpm of sera sample binding to peptide divided by the specific OD450 or cpm of NHS sample binding to peptide, which value is less than 2) | - (specific OD450 or cpm of sera sample binding to peptide divided by the specific OD450 or cpm of NHS sample binding to peptide, which value is less than 2) | ++ (which value is greater than 3) | Percentage of sera samples demonstrating binding to peptide, non-transmitter ([1]; Non-transmitter group, n = 13): 53.8%; Percentage of sera samples demonstrating binding to peptide, transmitter ([1]; Transmitter / transmission group, n = 7): 42.9%; Percent of the maternal serum samples that bound to the peptide ([1]; all 20 samples): 50%; Number of Non-Transmitters which bound to peptide [2]: 0; Percent of Non-Transmitters which bound to peptide [2]: 0%; Number of Transmitters which bound to peptide [2]: 0; Percent of Transmitters which bound to peptide [2]: 0%
2 | QNNLLRAIEAQQHLLQLTVWGI [Peptide 35] | - (specific OD450 or cpm of sera sample binding to peptide divided by the specific OD450 or cpm of NHS sample binding to peptide, which value is less than 2) | - (specific OD450 or cpm of sera sample binding to peptide divided by the specific OD450 or cpm of NHS sample binding to peptide, which value is less than 2) | + (which value is between 2 to 3) | - (specific OD450 or cpm of sera sample binding to peptide divided by the specific OD450 or cpm of NHS sample binding to peptide, which value is less than 2) | - (specific OD450 or cpm of sera sample binding to peptide divided by the specific OD450 or cpm of NHS sample binding to peptide, which value is less than 2) | - (specific OD450 or cpm of sera sample binding to peptide divided by the specific OD450 or cpm of NHS sample binding to peptide, which value is less than 2) | + (which value is between 2 to 3) | - (specific OD450 or cpm of sera sample binding to peptide divided by the specific OD450 or cpm of NHS sample binding to peptide, which value is less than 2) | - (specific OD450 or cpm of sera sample binding to peptide divided by the specific OD450 or cpm of NHS sample binding to peptide, which value is less than 2) | - (specific OD450 or cpm of sera sample binding to peptide divided by the specific OD450 or cpm of NHS sample binding to peptide, which value is less than 2) | - (specific OD450 or cpm of sera sample binding to peptide divided by the specific OD450 or cpm of NHS sample binding to peptide, which value is less than 2) | - (specific OD450 or cpm of sera sample binding to peptide divided by the specific OD450 or cpm of NHS sample binding to peptide, which value is less than 2) | - (specific OD450 or cpm of sera sample binding to peptide divided by the specific OD450 or cpm of NHS sample binding to peptide, which value is less than 2) | - (specific OD450 or cpm of sera sample binding to peptide divided by the specific OD450 or cpm of NHS sample binding to peptide, which value is less than 2) | - (specific OD450 or cpm of sera sample binding to peptide divided by the specific OD450 or cpm of NHS sample binding to peptide, which value is less than 2) | - (specific OD450 or cpm of sera sample binding to peptide divided by the specific OD450 or cpm of NHS sample binding to peptide, which value is less than 2) | - (specific OD450 or cpm of sera sample binding to peptide divided by the specific OD450 or cpm of NHS sample binding to peptide, which value is less than 2) | - (specific OD450 or cpm of sera sample binding to peptide divided by the specific OD450 or cpm of NHS sample binding to peptide, which value is less than 2) | - (specific OD450 or cpm of sera sample binding to peptide divided by the specific OD450 or cpm of NHS sample binding to peptide, which value is less than 2) | - (specific OD450 or cpm of sera sample binding to peptide divided by the specific OD450 or cpm of NHS sample binding to peptide, which value is less than 2) | Number of Non-Transmitters which bound to peptide [2]: 0; Percent of Non-Transmitters which bound to peptide [2]: 0%; Number of Transmitters which bound to peptide [2]: 0; Percent of Transmitters which bound to peptide [2]: 0%
